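A five-concentration, 48-hour dose response in 96-well plates underlies each endpoint, interpolated linearly between surrounding concentrations. The concentration for full growth arrest is given as TGI.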
Key:
Assay in all cases: inhibition of tumour cell growth, NCI panel, 48 h
A549 NSCLC = test system: A549 NSCLC
COLO 205 colon = test system: COLO 205 colon
HCT-116 colon = test system: HCT-116 colon
HOP-92 NSCLC = test system: HOP-92 NSCLC
MCF7 breast = test system: MCF7 breast
MDA-MB-435 = test system: MDA-MB-435
MOLT-4 leukemia = test system: MOLT-4 leukemia
NCI-H23 lung = test system: NCI-H23 lung
NCI-H460 lung = test system: NCI-H460 lung
NCI-H522 lung = test system: NCI-H522 lung
NCI/ADR-RES ovarian = test system: NCI/ADR-RES ovarian
SF-539 CNS = test system: SF-539 CNS
SK-MEL-2 melanoma = test system: SK-MEL-2 melanoma
SK-MEL-28 melanoma = test system: SK-MEL-28 melanoma
SK-OV-3 ovarian = test system: SK-OV-3 ovarian
SR leukemia = test system: SR leukemia
T-47D breast = test system: T-47D breast
TK-10 renal = test system: TK-10 renal
U251 CNS = test system: U251 CNS

| Compound | TGI (A549 NSCLC) [µM] | TGI (COLO 205 colon) [µM] | TGI (HCT-116 colon) [µM] | TGI (HOP-92 NSCLC) [µM] | TGI (MCF7 breast) [µM] | TGI (MDA-MB-435) [µM] | TGI (MOLT-4 leukemia) [µM] | TGI (NCI-H23 lung) [µM] | TGI (NCI-H460 lung) [µM] | TGI (NCI-H522 lung) [µM] | TGI (NCI/ADR-RES ovarian) [µM] | TGI (SF-539 CNS) [µM] | TGI (SK-MEL-2 melanoma) [µM] | TGI (SK-MEL-28 melanoma) [µM] | TGI (SK-OV-3 ovarian) [µM] | TGI (SR leukemia) [µM] | TGI (T-47D breast) [µM] | TGI (TK-10 renal) [µM] | TGI (U251 CNS) [µM] |
| --- | --- | --- | --- | --- | --- | --- | --- | --- | --- | --- | --- | --- | --- | --- | --- | --- | --- | --- | --- |
| CCN(CCCl)c1cc(CN(C)C)cc(NC(=O)C23CCC(C(=O)Nc4cc(CN(C)C)cc(N(CC)CCCl)c4)(CC2)CC3)c1 | 5.14 | 2.81 | 5.33 | 5.06 | 2.01 | 3.08 | 0.503 | 4.71 | 2.17 | 1.47 | > 100 | 2.15 | 4.35 | 3.55 | 4.24 | 24.2 | 19.2 | 21.2 | 11 |
| CC(NC(=O)c1ccc(NP(=O)(OCc2ccc([N+](=O)[O-])o2)N(C)CCCCCl)cc1)c1ccc(OCC2CCCCC2)c(C(N)=O)c1 (stereo not given) | 33.2 | 22.8 | 31.6 | 20.6 | 18.3 | 33.6 | 68.8 | 34.8 | 72.3 | 34.2 | > 100 | 33.7 | 49.3 | 31.6 | 78.3 | 40.7 | 25.5 | 80.7 | 49.9 |
| N#CC(C#N)N=Nc1ccc(-c2nc3ccccc3o2)cc1 | 47.6 | 23.9 | 19.5 | > 100 | 36.2 | 52.9 | 37 | 29.9 | 30.4 | 73.7 | 62.9 | 26.1 | 31.4 | 32.3 | 43.7 | 42.6 | 25.2 | 38.2 | 29.7 |
| Oc1cc(N2CCCC2)ccc1/C=N/N1C(=S)N(c2ccccc2)C(=Nc2ccccc2)C1=Nc1ccccc1 | > 100 | > 100 | > 100 | > 100 | > 100 | > 100 | > 100 | > 100 | > 100 | > 100 | > 100 | > 100 | > 100 | > 100 | > 100 | > 100 | > 100 | > 100 | > 100 |
| C[N+](C)(C)CC(=O)N/N=C(\C(=O)NC1=C(Cl)C(=O)c2ccccc2C1=O)C(C#N)c1nc(-c2ccc([N+](=O)[O-])cc2)cs1 (stereo not given) | 19.4 | 35 | 20.8 | 29 | 22.3 | 3.17 | 53.7 | 11.4 | 25.2 | 19.2 | > 57.5 | 22.3 | 30.9 | 17.6 | 41.8 | 52.5 | 37.9 | 74.6 | 26.4 |
| COc1cccc(Nc2nc(N)nc(N)c2N)c1 | > 100 | > 100 | 53.8 | > 100 | 95 | > 100 | 34.5 | > 100 | 43.6 | > 100 | > 100 | > 100 | > 100 | > 100 | > 100 | 49.6 | > 100 | > 100 | > 100 |
| Cc1ccnc2[nH]c(-c3ccc(F)cc3)cc(=O)c12 | > 100 | > 76.8 | > 100 | > 100 | > 100 | > 44.8 | > 100 | > 100 | > 60.4 | > 66.8 | > 100 | > 100 | > 100 | > 100 | > 100 | 25.9 | > 100 | > 100 | > 100 |
| CN(C)c1ccc(C2CC(c3ccc4ccccc4c3O)=NN2c2ccc([N+](=O)[O-])cc2[N+](=O)[O-])cc1 (stereo not given) | > 100 | > 100 | > 100 | > 100 | > 100 | 34.6 | 94.5 | 77.7 | > 100 | > 100 | > 100 | > 100 | > 100 | > 100 | > 100 | 51.3 | > 100 | > 100 | > 100 |
| O=S1(=O)OCCOS(=O)(=O)C1Cc1cccc2ccccc12 | > 100 | 29.2 | 48.3 | 56.6 | 37.6 | 32 | 65.9 | 79.5 | 35.4 | 47.8 | 54.8 | 39.9 | > 100 | 21.5 | 70.7 | 64.9 | > 100 | > 100 | 40.7 |
| COc1cc2c(cc1OC)CC1c3cc(OC)c(OC)cc3CCN1CC2 (stereo not given) | > 100 | > 100 | > 100 | > 100 | > 100 | > 100 | > 100 | 68 | > 100 | > 100 | > 100 | > 100 | > 100 | > 100 | > 100 | > 100 | > 100 | > 100 | > 100 |
